Results as given in patent publication US8236143B2, “Controlling chemical reactions by spectral chemistry and spectral conditioning” (GR Intellectual Reserve, LLC, priority 2002, dated 2012).

Tests used:
[1] = Sucrose solubility in sodium-lamp conditioned vs control water at room temperature (22° C.); assay type: physicochemical
Procedure: Beaker “II” was placed under another sodium lamp 12 as like Beaker “KK”; and Beaker “JJ” was placed in the same incubator as Beaker “LL”. […] Specifically, Beaker “GG” was placed under another sodium lamp 12 as like Beaker “KK” and Beaker “II”; and Becker “HH” was placed into the same incubator as Beaker “LL” and “II”.

[2] = Phenyl salicylate solubility in neon-lamp conditioned vs unconditioned acetone at room temperature; assay type: physicochemical; settings: about 20 hours equilibration
Procedure: Acetone (about 1 ml) was pipetted into small glass test tubes and stoppers placed in the tube. Tubes were placed under a neon lam; (about 8m/cm^2) in an otherwise dark room for about 1-5 hours at about 28° C. ambient temperature. Tubes were also placed simultaneously in an incubator at 28° C. for about 1.5 hours.
Phenyl solicylate (about 3.50 grams) was added to each tube leaving a layer undissolved on the bottom of each tube. The solutions were allowed to equilibrate (about 20 hours). Solution was filtered over the crystals and 0.500 ml pipetted into fresh tubes.
After the acetone evaporated, dry weights of phenyl solicylate per ml dissolved in conditioned and unconditioned acetone were determined.

OC[C@H]1O[C@@](CO)(O[C@H]2O[C@H](CO)[C@@H](O)[C@H](O)[C@H]2O)[C@@H](O)[C@@H]1O [Sucrose]
Weight (dry sucrose weight per 100 ml solution) ([1]; Beaker GG, water under sodium lamp one hour, solution at 23.5° C.): 49 g/100 ml | Weight (dry sucrose weight per 100 ml solution) ([1]; Beaker HH, control water 1 hour in incubator, solution at 23° C.): 49 g/100 ml | Weight (dry sucrose weight per 100 ml solution) ([1]; Beaker II, water under sodium lamp two hours, solution at 23.5° C.): 47 g/100 ml | Weight (dry sucrose weight per 100 ml solution) ([1]; Beaker JJ, control water 2 hours in incubator, solution at 23.5° C.): 44 g/100 ml | Weight (dry sucrose weight per 100 ml solution) ([1]; Beaker KK, water under Na lamp three hours, solution at 23.5° C.): 46 g/100 ml | Weight (dry sucrose weight per 100 ml solution) ([1]; Beaker LL, control water 3 hours in incubator, solution at 23.5° C.): 49 g/100 ml | more sucrose dissolved by conditioned water than by untreated control water ([1]; two hours exposure of water to the sodium lamp): about 7%

O=C(Oc1ccccc1)c1ccccc1O [phenyl salicylate]
Average amount of phenyl salicylate dissolved ([2]; acetone conditioned under neon lamp): 0.78 g/mL | Average amount of phenyl salicylate dissolved ([2]; unconditioned acetone (incubator 28° C.)): 0.68 g/mL
